According to US11497740B2, “Use of Jumonji C demethylase inhibitors for the treatment and prevention of chemotherapy resistance and radioresistance in cancer” (THE BOARD OF REGENTS OF THE UNIVERSITY OF TEXAS SYSTEM, priority 2016, dated 2022):

Key:
Type in all cases: cell-based, human
H1299 T18 = assay: MTS cell viability assay, H1299 T18 resistant variant vs H1299 Parental; settings: for H1299 T18 SR (Selectivity Ratio): SR = [IC50 of Parental]/[IC50 of Resistant], H1299 T18 vs H1299 Parental; for loss of cell viability: H1299 T18 and H1299 Parental; for cross-resistance of paclitaxel+carboplatin resistant variants: resistant variants (FIGS. 2D, 9)
Protocol: (§1) NSCLC lines were treated with paclitaxel+carboplatin combination, given in a ˜2:3 wt/wt ratio, to mirror the clinical dosage values of ˜225 mg/m2 and ˜330 mg/m2, paclitaxel and carboplatin respectively. Note that considering the molecular weights of the two drugs, this translates to approximately a 1 to 3.4 molar ratio. Drugs were given in cycles, following a drug on/drug off treatment scheme. Each cycle consisted of 4-5 days of drug treatment and drug-free culturing for about 1-2 weeks or more to allow the surviving cells to repopulate the plate. […] Untreated parental cells were simultaneously maintained at all times for comparison. Cell viability was assessed in 96-well plates using standard MTS assays (Promega). Treatment duration in MTS assays was 4 days. Drugs were tested in two- or four-fold serial dilutions, totaling 8 different drug concentrations, with 8 replicates per concentration. Response was validated in multiple replicate plates (n≥3).
(§2) Cell viability was assessed by standard MTS assays using Promega's CellTiter reagents. Eight drug concentrations given as two- or four-fold dilutions were tested for each chemotherapeutic agent. In addition, each experiment contained eight replicates per concentration and the entire assay was performed in multiple replicates (n≥3).

H1355 T16 = assay: MTS cell viability assay, H1355 T16 resistant variant vs H1355 Parental; settings: for H1355 T16 SR (Selectivity Ratio): SR = [IC50 of Parental]/[IC50 of Resistant], H1355 T16 vs H1355 Parental; for loss of cell viability: H1355 T16 and H1355 Parental; for cross-resistance of paclitaxel+carboplatin resistant variant: H1355 T16
Protocol: as §1, §2

HCC4017 T5 = assay: MTS cell viability assay, HCC4017 T5 resistant variant vs parental; settings: HCC4017 T5 and parental
Protocol: as §1, §2

H1693 T8 = assay: MTS cell viability assay, H1693 T8 resistant variant vs parental; settings: H1693 T8 and parental
Protocol: as §1, §2

| SMILES | H1299 T18 SR (Selectivity Ratio) (H1299 T18) | H1355 T16 SR (Selectivity Ratio) (H1355 T16) | other results |
| --- | --- | --- | --- |
| O=C1C(=Cc2cccnc2)C(=O)c2ccccc21 [PRT 4165] | 1.0 | 1.4 | – |
| CN(C)c1ccc(C(=O)NCCCCCCC(=O)NO)cc1 [M344] | 1.1 | 1.8 | – |
| Oc1nc(-c2ccc(C(F)(F)F)cc2)nc2c1CSCC2 [XAV939] | 2.7 | 1.0 | – |
| c1cc(SSc2ccns2)sn1 [NU 9056] | 2.0 | 1.0 | – |
| CC(/C=C/C(=O)NO)=C\[C@@H](C)C(=O)c1ccc(N(C)C)cc1 [Trichostatin A] | 1.8 | 2.6 | – |
| Clc1ccc(N/N=C(/c2ccccc2)c2ccccn2)nc1 (single isomer, unassigned) [Z isomer (Inactive)] | 1.1 | 1.0 | loss of cell viability (H1299 T18): no viability loss; loss of cell viability (H1355 T16): no loss of cell viability; loss of cell viability (HCC4017 T5): No loss in cell viability; loss of cell viability (H1693 T8): No loss in cell viability |
| CCOC(=O)CCNc1cc(N2CCc3ccccc3CC2)nc(-c2cccnc2)n1 [GSK-J5] | – | – | loss of cell viability (H1299 T18): no effect on cell viability; loss of cell viability (H1355 T16): no loss of cell viability |
| CC(=O)O[C@@]12CO[C@@H]1C[C@H](O)[C@@]1(C)C(=O)[C@H](O)C3=C(C)[C@@H](OC(=O)[C@H](O)[C@@H](NC(=O)OC(C)(C)C)c4ccccc4)C[C@@](O)([C@@H](OC(=O)c4ccccc4)[C@H]21)C3(C)C [Docetaxel] | 0.03 | 0.002 | cross-resistance of paclitaxel+carboplatin resistant variants (H1299 T18): cross-resistant; cross-resistance of paclitaxel+carboplatin resistant variant (H1355 T16): cross-resistant |
| CCC1=C[C@@H]2CN(C1)Cc1c([nH]c3ccccc13)[C@@](C(=O)OC)(c1cc3c(cc1OC)N(C)[C@H]1[C@@](O)(C(=O)OC)[C@H](OC(C)=O)[C@]4(CC)C=CCN5CC[C@]31[C@@H]54)C2 [Vinorelbine] | 0.03 | 0.002 | cross-resistance of paclitaxel+carboplatin resistant variants (H1299 T18): cross-resistant; cross-resistance of paclitaxel+carboplatin resistant variant (H1355 T16): cross-resistant |
| COc1cccc2c1C(=O)c1c(O)c3c(c(O)c1C2=O)C[C@@](O)(C(=O)CO)C[C@@H]3O[C@H]1C[C@H](N)[C@H](O)[C@H](C)O1 [Doxorubicin] | 0.04 | 0.25 | cross-resistance of paclitaxel+carboplatin resistant variants (H1299 T18): cross-resistant; cross-resistance of paclitaxel+carboplatin resistant variant (H1355 T16): cross-resistant |
| COc1cc2nc(N3CCCN(C)CC3)nc(NC3CCN(Cc4ccccc4)CC3)c2cc1OC [BIX 01294] | 0.9 | 1.9 | – |
| NC1CC1c1ccccc1 (stereo not drawn) [2-PCPA] | 1.3 | 1.8 | – |
| COc1ccc(CCc2nc3cc(-c4c(C)noc4C)ccc3n2C[C@H](C)N2CCOCC2)cc1Cl [SGC-CBP30] | 1.3 | 0.9 | – |
| CCCC(CCC)C(=O)O [Valproic acid] | 1.4 | 1.3 | – |
| C/C=C1\NC(=O)[C@H]2CSSCC/C=C/[C@H](CC(=O)N[C@H](C(C)C)C(=O)N2)OC(=O)[C@H](C(C)C)NC1=O [Depsipeptide] | 0.05 | 0.03 | cross-resistance of paclitaxel+carboplatin resistant variants (H1299 T18): cross-resistant; cross-resistance of paclitaxel+carboplatin resistant variant (H1355 T16): cross-resistant |
| Nc1nccc2c1ncn2C1C=C(CO)C(O)C1O (stereo not drawn) [DZNep] | 0.5 | 1.7 | – |
| NC1(c2ccc(-c3nc4ccn5c(=O)[nH]nc5c4cc3-c3ccccc3)cc2)CCC1 [MK-2206] | 0.7 | 1.8 | – |
| O=C(/C=C/c1cccnc1)NCCCCC1CCN(C(=O)c2ccccc2)CC1 [FK866] | 0.1 | 2.1 | – |
| CC/C(=C(\c1ccccc1)c1ccc(OCCN(C)C)cc1)c1ccccc1 [Tamoxifen] | 1.0 | 1.0 | – |
| Cc1sc2c(c1C)C(c1ccc(Cl)cc1)=N[C@@H](CC(=O)OC(C)(C)C)c1nnc(C)n1-2 [JQ1] | 0.6 | 6.6 | – |
| CC(=O)O[C@H]1C(=O)[C@@]2(C)[C@H]([C@H](OC(=O)c3ccccc3)[C@]3(O)C[C@H](OC(=O)[C@H](O)[C@@H](NC(=O)c4ccccc4)c4ccccc4)C(C)=C1C3(C)C)[C@]1(OC(C)=O)CO[C@@H]1C[C@@H]2O [Paclitaxel] | 0.03 | 0.02 | – |
| O=C(CCCCCN1C(=O)c2cccc3cccc(c23)C1=O)NO [Scriptaid] | 1.5 | 1.4 | – |
| N.N.O=C([O-])C1(C(=O)[O-])CCC1.[Pt+2] [Carboplatin] | 0.8 | 1.2 | – |
| Nc1ncn([C@@H]2O[C@H](CO)[C@@H](O)[C@H]2O)c(=O)n1 [5-azacytidine] | 0.2 | 2.6 | – |
| O=C(/C=C/N1C[C@H]2C[C@@H]1CN2c1ccccn1)c1ccccc1O [PFI 3] | 1.1 | 2.5 | – |
| CC[C@H](C)n1cc(C)c2c(C(=O)NCc3c(C)cc(C)[nH]c3=O)cc(-c3ccc(N4CCNCC4)nc3)cc21 [GSK 126] | 1.0 | 0.8 | – |
| CCc1c2c(nc3ccc(OC(=O)N4CCC(N5CCCCC5)CC4)cc13)-c1cc3c(c(=O)n1C2)COC(=O)[C@]3(O)CC [Irinotecan] | 1.1 | 2.7 | – |
